Reference: patent publication US10093630B2, “Pyrazole compounds and methods of making and using same” (ABIDE THERAPEUTICS, INC., priority 2014, dated 2018)
Where two headings read alike, the source gives them in different places.

Experiments:
Assay in all cases: In vitro competitive activity-based protein profiling (gel-based, FP-Rh or HT-01 probe)
Assay type in all cases: biochemical
[1] = target: T1, MAGL (Mus musculus, UniProt O35678); settings: for inhibition at 1 µM: 1 μM inhibitor; for IC50: mouse brain membrane fraction or cell lysates, 30 min preincubation at 37° C., read-out: Mouse (IC50 value, nM) MAGL; for inhibition at 10 µM: 10 μM inhibitor
T1 construct: Proteomes (mouse brain membrane fraction or cell lysates); from tissue; host or cells: mouse brain membrane fraction (or cell lysates, not specified)
T1 sequence (O35678 1-303): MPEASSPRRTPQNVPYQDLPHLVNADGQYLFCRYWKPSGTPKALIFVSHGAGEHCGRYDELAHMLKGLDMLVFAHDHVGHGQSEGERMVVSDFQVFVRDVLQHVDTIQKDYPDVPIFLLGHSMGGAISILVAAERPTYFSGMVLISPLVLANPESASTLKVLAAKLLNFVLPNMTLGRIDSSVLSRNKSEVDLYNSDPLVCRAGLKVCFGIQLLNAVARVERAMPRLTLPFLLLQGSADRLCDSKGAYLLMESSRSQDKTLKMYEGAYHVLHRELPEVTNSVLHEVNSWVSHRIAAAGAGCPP
Experimental: (§1) In Vitro Competitive Activity-Based Protein Profiling.
(§2) Proteomes (mouse brain membrane fraction or cell lysates) (50 μL, 1.0 mg/mL total protein concentration) were preincubated with varying concentrations of inhibitors at 37° C. After 30 min, FP-Rh or HT-01 ([…], 50 μM in DMSO) was added and the mixture was incubated for another 30 min at 37° C. Reactions were quenched with SDS loading buffer (15 μL—4×) and run on SDS-PAGE. Following gel imaging, serine hydrolase activity was determined by measuring fluorescent intensity of gel bands corresponding to MAGL, ABHD6, FAAH, and PLA2G7 using ImageJ 1.43u software.

[2] = target: T2, PLA2G7 (Mus musculus, UniProt Q60963); settings: for inhibition at 1 µM: 1 μM inhibitor, read-out: % Inhibition at 1 μM, D = PLA2G7; for IC50: mouse brain membrane fraction or cell lysates, 30 min preincubation at 37° C.; for inhibition at 10 µM: 10 μM inhibitor, read-out: % Inhibition at 10 μM, D = PLA2G7
T2 construct: Proteomes (mouse brain membrane fraction or cell lysates); from tissue; host or cells: mouse brain membrane fraction (or cell lysates, not specified)
T2 sequence (Q60963 22-440): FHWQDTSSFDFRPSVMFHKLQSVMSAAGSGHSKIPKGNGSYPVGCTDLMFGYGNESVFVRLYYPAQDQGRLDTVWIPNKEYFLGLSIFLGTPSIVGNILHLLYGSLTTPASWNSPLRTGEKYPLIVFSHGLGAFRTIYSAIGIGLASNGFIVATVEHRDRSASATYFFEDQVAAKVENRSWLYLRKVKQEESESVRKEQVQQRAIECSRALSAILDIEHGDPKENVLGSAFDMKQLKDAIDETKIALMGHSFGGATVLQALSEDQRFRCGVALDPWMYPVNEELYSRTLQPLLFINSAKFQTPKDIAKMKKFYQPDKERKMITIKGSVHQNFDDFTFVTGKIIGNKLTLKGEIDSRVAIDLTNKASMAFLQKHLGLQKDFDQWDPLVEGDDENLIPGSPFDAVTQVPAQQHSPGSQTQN
Experimental: as §1, §2

[3] = target: T3, ABHD6 (Mus musculus, UniProt Q8R2Y0); settings: for inhibition at 1 µM: 1 μM inhibitor, read-out: % Inhibition at 1 μM, C = ABHD6; for IC50: mouse brain membrane fraction or cell lysates, 30 min preincubation at 37° C., read-out: Mouse (IC50 value, nM) ABHD6; for inhibition at 10 µM: 10 μM inhibitor, read-out: % Inhibition at 10 μM, C = ABHD6
T3 construct: Proteomes (mouse brain membrane fraction or cell lysates); from tissue; host or cells: mouse brain membrane fraction (or cell lysates, not specified)
T3 sequence (Q8R2Y0 1-336): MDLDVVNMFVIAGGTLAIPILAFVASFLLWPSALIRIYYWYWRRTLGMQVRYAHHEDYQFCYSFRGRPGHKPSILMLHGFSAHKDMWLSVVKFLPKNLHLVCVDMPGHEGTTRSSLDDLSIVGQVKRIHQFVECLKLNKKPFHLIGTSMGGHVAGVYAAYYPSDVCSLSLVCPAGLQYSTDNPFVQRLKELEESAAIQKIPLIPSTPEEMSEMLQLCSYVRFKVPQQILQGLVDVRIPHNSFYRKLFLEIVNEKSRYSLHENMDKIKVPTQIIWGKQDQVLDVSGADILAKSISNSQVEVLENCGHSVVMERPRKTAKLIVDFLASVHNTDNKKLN
Experimental: as §1, §2

[4] = target: T4, FAAH (Mus musculus, UniProt O08914); settings: for inhibition at 1 µM: 1 μM inhibitor, read-out: % Inhibition at 1 μM, B = FAAH; for IC50: mouse brain membrane fraction or cell lysates, 30 min preincubation at 37° C., read-out: Mouse (IC50 value, nM) FAAH; for inhibition at 10 µM: 10 μM inhibitor, read-out: % Inhibition at 10 μM, B = FAAH
T4 construct: Proteomes (mouse brain membrane fraction or cell lysates); from tissue; host or cells: mouse brain membrane fraction (or cell lysates, not specified)
T4 sequence (O08914 1-579): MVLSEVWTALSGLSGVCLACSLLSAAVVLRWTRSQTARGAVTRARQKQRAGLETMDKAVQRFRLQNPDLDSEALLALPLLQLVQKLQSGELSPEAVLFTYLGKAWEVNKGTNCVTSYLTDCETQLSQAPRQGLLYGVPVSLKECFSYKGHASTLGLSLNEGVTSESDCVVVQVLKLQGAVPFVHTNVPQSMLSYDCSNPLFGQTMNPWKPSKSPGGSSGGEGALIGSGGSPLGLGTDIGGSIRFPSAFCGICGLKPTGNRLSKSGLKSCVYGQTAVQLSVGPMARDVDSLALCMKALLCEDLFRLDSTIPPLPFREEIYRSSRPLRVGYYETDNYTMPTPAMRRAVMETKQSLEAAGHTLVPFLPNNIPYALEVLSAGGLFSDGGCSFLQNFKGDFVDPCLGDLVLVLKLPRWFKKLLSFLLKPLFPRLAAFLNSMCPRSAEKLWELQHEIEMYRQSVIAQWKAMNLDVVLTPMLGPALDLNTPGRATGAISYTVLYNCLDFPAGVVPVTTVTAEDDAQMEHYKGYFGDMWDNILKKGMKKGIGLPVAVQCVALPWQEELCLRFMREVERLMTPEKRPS
Experimental: as §1, §2

inhibition at 1 µM [1] | IC50 [1] | inhibition at 1 µM [2] | IC50 [2] | inhibition at 1 µM [3] | IC50 [3] | inhibition at 1 µM [4] | IC50 [4] | inhibition at 1 µM ([1]; gel-based competitive ABPP) | inhibition at 1 µM ([2]; gel-based competitive ABPP) | inhibition at 1 µM ([3]; gel-based competitive ABPP) | inhibition at 1 µM ([4]; gel-based competitive ABPP) | inhibition at 10 µM [1] | inhibition at 10 µM [2] | inhibition at 10 µM [3] | inhibition at 10 µM [4] | inhibition at 10 µM ([1]; gel-based competitive ABPP) | inhibition at 10 µM ([2]; gel-based competitive ABPP) | inhibition at 10 µM ([3]; gel-based competitive ABPP) | inhibition at 10 µM ([4]; gel-based competitive ABPP) | SMILES
> 75% | < 100 nM | < 25% | > 1000 nM | > 75% | < 100 nM | > 75% | 100 to 1000 nM | – | – | – | – | – | – | – | – | – | – | – | – | NC(=O)c1cnn(C(=O)N2CCN(Cc3ccc(Cl)cc3)CC2)c1 [Example 204, 1-(4-(4-chlorobenzyl)piperazine-1-carbonyl)-1H-pyrazole-4-carboxamide]
– | < 100 nM | – | 100 to 1000 nM | – | < 100 nM | – | < 100 nM | > 75% | 25 to 75% | > 75% | > 75% | – | – | – | – | – | – | – | – | NC(=O)c1cnn(C(=O)N2CCN(Cc3cccc(Oc4ccccc4)c3)CC2)c1 [Example 286, 1-(4-(3-phenoxybenzyl)piperazine-1-carbonyl)-1H-pyrazole-4-carboxamide]
< 25% | – | < 25% | – | 25 to 75% | – | > 75% | – | – | – | – | – | > 75% | > 75% | > 75% | > 75% | – | – | – | – | O=C(c1cnn(C(=O)N2CCN(Cc3ccc4c(c3)OCO4)CC2)c1)N1CCC1 [Example 86, Azetidin-1-yl(1-(4-(benzo[d][1,3]dioxol-5-ylmethyl)piperazine-1-carbonyl)-1H-pyrazol-4-yl)methanone]
– | – | < 25% | – | < 25% | – | – | – | – | – | – | – | 25 to 75% | > 75% | 25 to 75% | < 25% | – | – | – | – | O=C(c1cnn(C(=O)N2CCN(Cc3ccncn3)CC2)c1)N1CCOCC1 [Example 54, (4-(Morpholine-4-carbonyl)-1H-pyrazol-1-yl)(4-(pyrimidin-4-ylmethyl)piperazin-1-yl)methanone]
– | – | – | – | – | – | – | – | < 25% | < 25% | < 25% | < 25% | – | – | – | – | – | – | – | – | CCN(Cc1ccc(OC)cc1)C(=O)n1cc(C)cn1 [Example 260, N-Ethyl-N-(4-methoxybenzyl)-4-methyl-1H-pyrazole-1-carboxamide]
– | – | 25 to 75% | – | < 25% | – | – | – | – | – | – | – | 25 to 75% | > 75% | > 75% | < 25% | – | – | – | – | Cc1ccccc1-c1cnn(C(=O)N2CCN(C(c3ccc(Cl)cc3)c3ccc(Cl)cc3)CC2)c1 [Example 122, (4-(Bis(4-chlorophenyl)methyl)piperazin-1-yl)(4-(o-tolyl)-1H-pyrazol-1-yl)methanone]
< 25% | – | < 25% | – | < 25% | – | < 25% | – | – | – | – | – | < 25% | > 75% | 25 to 75% | < 25% | – | – | – | – | O=C(c1cnn(C(=O)N2CCN(Cc3cncnc3)CC2)c1)N1CCCC1 [Example 84, (4-(Pyrimidin-5-ylmethyl)piperazin-1-yl)(4-(pyrrolidine-1-carbonyl)-1H-pyrazol-1-yl)methanone]
> 75% | – | > 75% | – | > 75% | – | > 75% | – | – | – | – | – | > 75% | > 75% | > 75% | > 75% | – | – | – | – | Cc1cccc(N2CCN(C(=O)n3cc(C(F)(F)F)cn3)CC2)c1 [Example 231, (4-m-Tolylpiperazin-1-yl)(4-(trifluoromethyl)-1H-pyrazol-1-yl)methanone]
< 25% | – | > 75% | – | < 25% | – | < 25% | – | – | – | – | – | 25 to 75% | > 75% | 25 to 75% | < 25% | – | – | – | – | CC(=O)N1CCN(C(=O)n2cc(C(F)(F)F)cn2)CC1 [Example 149, 1-(4-(4-(Trifluoromethyl)-1H-pyrazole-1-carbonyl)piperazin-1-yl)ethanone]
– | < 100 nM | – | < 100 nM | – | < 100 nM | – | < 100 nM | > 75% | > 75% | > 75% | > 75% | – | – | – | – | – | – | – | – | CNC(=O)c1cnn(C(=O)N2CCN(Cc3cccc(Oc4ccccc4)c3)CC2)c1 [Example 287, N-Methyl-1-(4-(3-phenoxybenzyl)piperazine-1-carbonyl)-1H-pyrazole-4-carboxamide]
– | < 100 nM | – | < 100 nM | – | 100 to 1000 nM | – | 100 to 1000 nM | > 75% | > 75% | > 75% | > 75% | – | – | – | – | – | – | – | – | O=C(N1CCN(Cc2ccccc2N2CCCC2)CC1)n1cc(C(F)(F)F)cn1 [Example 280, (4-(2-(Pyrrolidin-1-yl)benzyl)piperazin-1-yl)(4-(trifluoromethyl)-1H-pyrazol-1-yl)methanone]
> 75% | 100 to 1000 nM | < 25% | > 1000 nM | > 75% | > 1000 nM | > 75% | < 100 nM | – | – | – | – | – | – | – | – | – | – | – | – | CCN(Cc1cccc(Cl)c1)C(=O)n1cc(C#N)cn1 [Example 243, N-(3-chlorobenzyl)-4-cyano-N-ethyl-1H-pyrazole-1-carboxamide]
– | – | – | – | – | – | – | – | < 25% | < 25% | < 25% | 25 to 75% | – | – | – | – | < 25% | < 25% | < 25% | > 75% | O=C(O)c1cnn(C(=O)N2CCN(Cc3ccc(Cl)cc3)CC2)c1 [Example 288, 1-(4-(4-Chlorobenzyl)piperazine-1-carbonyl)-1H-pyrazole-4-carboxylic acid]
